According to PMC5513037, “Examining the influence of specificity ligands and ATP-competitive ligands on the overall effectiveness of bivalent kinase inhibitors” (Proteome Science, 2017):

Assays:
Assay in all cases: KAM-matrix competition in K562 lysate;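 on 0.001 uM KAM: median log10 fold change of treatment over DMSO control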;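 on 0.01 uM KAM: median log10 fold change of treatment over DMSO control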;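 on 0.1 uM KAM: median log10 fold change of treatment over DMSO control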;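 on 1 uM KAM: median log10 fold change of treatment over DMSO control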;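 on 10 uM KAM: median log10 fold change of treatment over DMSO control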
Format in all cases: binding
KSR1 = target: T1, KSR1 (Homo sapiens, UniProt Q8IVT5);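 on 0.001 uM KAM: median log10 fold change of treatment over DMSO control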;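 on 0.01 uM KAM: median log10 fold change of treatment over DMSO control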;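 on 0.1 uM KAM: median log10 fold change of treatment over DMSO control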;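 on 1 uM KAM: median log10 fold change of treatment over DMSO control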;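 on 10 uM KAM: median log10 fold change of treatment over DMSO control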
T1 construct: endogenous in cells; host or cells: K562
T1 sequence (Q8IVT5 1-923): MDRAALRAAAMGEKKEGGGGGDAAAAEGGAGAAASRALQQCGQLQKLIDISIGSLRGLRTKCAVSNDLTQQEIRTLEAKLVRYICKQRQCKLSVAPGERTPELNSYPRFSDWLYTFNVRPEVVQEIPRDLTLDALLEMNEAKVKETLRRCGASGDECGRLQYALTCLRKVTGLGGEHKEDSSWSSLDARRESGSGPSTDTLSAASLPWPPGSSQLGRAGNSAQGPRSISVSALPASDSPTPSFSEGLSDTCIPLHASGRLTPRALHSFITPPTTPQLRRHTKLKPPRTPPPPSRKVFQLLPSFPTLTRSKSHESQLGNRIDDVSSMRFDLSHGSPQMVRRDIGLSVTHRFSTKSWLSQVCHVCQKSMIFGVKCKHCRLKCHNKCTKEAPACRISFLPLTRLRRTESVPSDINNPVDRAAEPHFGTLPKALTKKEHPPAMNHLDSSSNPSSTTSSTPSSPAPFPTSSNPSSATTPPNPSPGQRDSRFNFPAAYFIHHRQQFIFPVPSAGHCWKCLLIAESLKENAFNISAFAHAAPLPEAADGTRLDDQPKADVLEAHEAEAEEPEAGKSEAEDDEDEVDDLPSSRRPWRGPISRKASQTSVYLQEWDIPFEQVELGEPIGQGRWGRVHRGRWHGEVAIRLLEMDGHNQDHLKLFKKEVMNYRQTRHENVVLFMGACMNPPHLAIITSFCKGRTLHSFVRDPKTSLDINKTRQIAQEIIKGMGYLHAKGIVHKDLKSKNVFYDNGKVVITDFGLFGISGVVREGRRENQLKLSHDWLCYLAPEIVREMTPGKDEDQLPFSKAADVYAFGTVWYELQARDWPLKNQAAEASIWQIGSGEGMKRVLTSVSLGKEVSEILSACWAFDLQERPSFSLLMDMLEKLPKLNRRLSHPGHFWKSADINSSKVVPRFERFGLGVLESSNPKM
Protocol: (§1) Supplement 12953_2017_125_MOESM1_ESM.zip/MS_Supp Info.xlsx, sheet "KAM" | column: 10 uM KAM; 1 uM KAM; 0.1 uM KAM; 0.01 uM KAM; 0.001 uM KAM; RB50

MAP2K2 = target: T2, MAP2K2 (Homo sapiens, UniProt P36507)
T2 construct: endogenous in cells; host or cells: K562
Protocol: as §1

INSR = target: T3, INSR (Homo sapiens, UniProt P06213);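 on 0.001 uM KAM: median log10 fold change of treatment over DMSO control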;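 on 0.01 uM KAM: median log10 fold change of treatment over DMSO control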;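 on 0.1 uM KAM: median log10 fold change of treatment over DMSO control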;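 on 1 uM KAM: median log10 fold change of treatment over DMSO control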;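 on 10 uM KAM: median log10 fold change of treatment over DMSO control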
T3 construct: endogenous in cells; host or cells: K562
Protocol: as §1

HIPK1 = target: T4, HIPK1 (Homo sapiens, UniProt Q86Z02)
T4 construct: endogenous in cells; host or cells: K562
Protocol: as §1

MAPKAPK5 = target: T5, MAPKAPK5 (Homo sapiens, UniProt Q8IW41)
T5 construct: endogenous in cells; host or cells: K562
T5 sequence (Q8IW41 1-473): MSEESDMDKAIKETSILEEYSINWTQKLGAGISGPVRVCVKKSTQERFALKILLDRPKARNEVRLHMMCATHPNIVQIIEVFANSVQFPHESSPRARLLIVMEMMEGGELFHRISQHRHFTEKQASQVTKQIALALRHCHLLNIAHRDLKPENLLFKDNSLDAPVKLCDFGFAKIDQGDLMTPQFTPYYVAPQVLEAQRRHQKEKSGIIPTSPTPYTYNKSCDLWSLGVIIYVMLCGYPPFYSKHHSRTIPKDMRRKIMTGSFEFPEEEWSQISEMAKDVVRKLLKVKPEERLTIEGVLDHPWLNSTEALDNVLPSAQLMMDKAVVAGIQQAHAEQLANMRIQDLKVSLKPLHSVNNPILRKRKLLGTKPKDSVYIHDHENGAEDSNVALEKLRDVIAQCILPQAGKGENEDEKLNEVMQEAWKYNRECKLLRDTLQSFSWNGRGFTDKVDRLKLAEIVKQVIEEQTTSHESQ
Protocol: as §1

MAP3K3 = target: T6, MAP3K3 (Homo sapiens, UniProt Q99759)
T6 construct: endogenous in cells; host or cells: K562 cell lysate
T6 sequence (Q99759 1-626): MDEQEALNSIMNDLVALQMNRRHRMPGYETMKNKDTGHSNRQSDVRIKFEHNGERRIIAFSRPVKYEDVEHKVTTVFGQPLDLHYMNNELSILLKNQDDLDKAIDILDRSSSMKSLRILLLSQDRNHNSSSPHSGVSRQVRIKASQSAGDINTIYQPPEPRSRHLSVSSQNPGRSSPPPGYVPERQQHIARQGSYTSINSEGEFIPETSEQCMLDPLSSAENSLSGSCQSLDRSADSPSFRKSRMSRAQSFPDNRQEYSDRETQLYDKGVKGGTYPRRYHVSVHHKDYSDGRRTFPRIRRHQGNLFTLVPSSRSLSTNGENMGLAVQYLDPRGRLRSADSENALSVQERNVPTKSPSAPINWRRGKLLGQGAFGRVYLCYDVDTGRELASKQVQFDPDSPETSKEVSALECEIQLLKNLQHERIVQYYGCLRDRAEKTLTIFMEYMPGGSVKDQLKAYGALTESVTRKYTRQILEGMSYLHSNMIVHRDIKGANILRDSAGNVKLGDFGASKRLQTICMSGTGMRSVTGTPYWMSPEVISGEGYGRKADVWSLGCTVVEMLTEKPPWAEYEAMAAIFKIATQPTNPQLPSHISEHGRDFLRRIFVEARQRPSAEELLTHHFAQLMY
Protocol: as §1

[1] = KAM 0.001-10 uM, read-out: RB50 (the source's name)
[2] = read-out: RB50 (the source's name)

T2 sequence (P36507 whole entry): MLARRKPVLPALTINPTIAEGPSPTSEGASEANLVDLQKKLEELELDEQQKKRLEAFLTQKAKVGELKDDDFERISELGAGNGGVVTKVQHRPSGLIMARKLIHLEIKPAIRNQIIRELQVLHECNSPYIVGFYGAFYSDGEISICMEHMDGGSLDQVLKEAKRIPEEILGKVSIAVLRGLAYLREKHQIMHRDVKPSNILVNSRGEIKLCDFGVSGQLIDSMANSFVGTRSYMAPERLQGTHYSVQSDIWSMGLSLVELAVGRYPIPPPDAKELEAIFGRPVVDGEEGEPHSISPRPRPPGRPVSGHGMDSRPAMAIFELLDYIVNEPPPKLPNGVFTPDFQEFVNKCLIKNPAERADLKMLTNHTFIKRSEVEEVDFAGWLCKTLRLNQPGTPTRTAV
T4 sequence (Q86Z02 whole entry): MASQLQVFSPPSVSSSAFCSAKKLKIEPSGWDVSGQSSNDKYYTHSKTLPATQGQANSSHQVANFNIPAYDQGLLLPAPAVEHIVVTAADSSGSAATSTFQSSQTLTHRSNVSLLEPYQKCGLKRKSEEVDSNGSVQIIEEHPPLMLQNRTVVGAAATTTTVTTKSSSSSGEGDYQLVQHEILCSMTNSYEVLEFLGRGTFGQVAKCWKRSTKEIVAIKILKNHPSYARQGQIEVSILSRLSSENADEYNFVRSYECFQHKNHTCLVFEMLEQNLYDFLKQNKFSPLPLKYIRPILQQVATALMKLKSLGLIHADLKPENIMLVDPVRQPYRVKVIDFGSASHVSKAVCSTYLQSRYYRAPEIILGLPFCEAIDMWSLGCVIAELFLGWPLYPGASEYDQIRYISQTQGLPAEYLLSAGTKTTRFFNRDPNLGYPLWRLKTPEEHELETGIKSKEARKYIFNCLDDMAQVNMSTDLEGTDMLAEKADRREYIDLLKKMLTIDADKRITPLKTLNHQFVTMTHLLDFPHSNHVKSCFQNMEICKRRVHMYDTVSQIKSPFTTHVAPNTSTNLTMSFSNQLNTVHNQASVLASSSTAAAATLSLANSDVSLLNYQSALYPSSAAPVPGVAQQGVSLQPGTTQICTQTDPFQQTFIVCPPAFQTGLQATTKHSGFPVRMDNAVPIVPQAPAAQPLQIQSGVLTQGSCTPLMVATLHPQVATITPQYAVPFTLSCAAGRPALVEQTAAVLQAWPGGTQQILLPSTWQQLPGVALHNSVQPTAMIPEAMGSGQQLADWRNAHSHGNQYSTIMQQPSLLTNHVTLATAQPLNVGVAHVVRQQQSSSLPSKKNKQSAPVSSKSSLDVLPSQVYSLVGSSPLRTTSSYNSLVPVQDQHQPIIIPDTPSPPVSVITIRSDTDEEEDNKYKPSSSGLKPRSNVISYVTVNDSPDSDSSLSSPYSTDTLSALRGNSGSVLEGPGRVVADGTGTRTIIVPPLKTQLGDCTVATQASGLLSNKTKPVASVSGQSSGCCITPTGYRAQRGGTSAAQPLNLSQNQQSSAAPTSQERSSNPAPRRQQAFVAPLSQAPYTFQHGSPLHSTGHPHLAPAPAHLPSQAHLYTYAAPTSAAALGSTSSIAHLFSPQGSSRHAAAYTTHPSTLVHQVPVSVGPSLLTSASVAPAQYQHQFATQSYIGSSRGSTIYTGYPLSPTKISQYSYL
T3 sequence (P06213 28-1382): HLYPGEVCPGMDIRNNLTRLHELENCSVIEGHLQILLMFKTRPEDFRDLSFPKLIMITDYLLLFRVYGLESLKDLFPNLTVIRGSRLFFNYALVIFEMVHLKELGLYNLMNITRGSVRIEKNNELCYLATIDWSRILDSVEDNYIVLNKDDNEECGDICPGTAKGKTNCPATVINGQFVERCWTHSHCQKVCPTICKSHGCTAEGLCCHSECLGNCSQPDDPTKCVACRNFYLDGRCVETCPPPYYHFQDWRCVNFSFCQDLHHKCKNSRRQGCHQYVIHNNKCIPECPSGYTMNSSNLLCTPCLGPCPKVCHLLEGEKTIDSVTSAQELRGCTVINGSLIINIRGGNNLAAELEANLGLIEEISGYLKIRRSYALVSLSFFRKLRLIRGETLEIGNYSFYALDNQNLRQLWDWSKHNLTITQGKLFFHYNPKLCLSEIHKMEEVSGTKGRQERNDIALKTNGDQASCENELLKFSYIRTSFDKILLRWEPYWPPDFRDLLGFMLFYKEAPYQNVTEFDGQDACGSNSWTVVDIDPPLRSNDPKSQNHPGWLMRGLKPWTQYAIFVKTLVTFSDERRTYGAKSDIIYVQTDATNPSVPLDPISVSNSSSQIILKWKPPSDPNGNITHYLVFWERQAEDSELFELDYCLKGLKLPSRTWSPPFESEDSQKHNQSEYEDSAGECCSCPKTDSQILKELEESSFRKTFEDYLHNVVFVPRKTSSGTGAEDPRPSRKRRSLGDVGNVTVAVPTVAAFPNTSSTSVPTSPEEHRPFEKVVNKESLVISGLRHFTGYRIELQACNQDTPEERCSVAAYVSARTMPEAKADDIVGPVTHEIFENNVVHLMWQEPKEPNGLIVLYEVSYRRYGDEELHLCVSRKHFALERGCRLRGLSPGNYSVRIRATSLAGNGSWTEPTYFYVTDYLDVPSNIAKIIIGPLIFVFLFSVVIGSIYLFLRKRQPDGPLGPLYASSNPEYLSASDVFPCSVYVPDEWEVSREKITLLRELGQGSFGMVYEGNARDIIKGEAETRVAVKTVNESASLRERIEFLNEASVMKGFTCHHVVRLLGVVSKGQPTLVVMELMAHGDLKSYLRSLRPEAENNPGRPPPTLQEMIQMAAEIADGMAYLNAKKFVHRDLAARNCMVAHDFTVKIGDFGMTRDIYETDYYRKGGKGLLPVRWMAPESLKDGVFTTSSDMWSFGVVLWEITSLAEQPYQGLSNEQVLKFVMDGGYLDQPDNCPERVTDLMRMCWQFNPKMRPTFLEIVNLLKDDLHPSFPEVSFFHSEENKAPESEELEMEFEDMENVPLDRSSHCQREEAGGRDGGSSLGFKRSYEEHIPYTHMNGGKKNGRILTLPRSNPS

Q: For N#CCc1ccc(Nc2nc(NCCCN)cc(Nc3cc(C4CC4)[nH]n3)n2)cc1 [KAM], which IC50 (KSR1; [1]) is on record?
A: The IC50 was greater than 10000 nM.

Q: And the “0.001 uM KAM” value (KSR1; relative to 0 uM KAM = 0)?
A: Its value is -0.01848.

Q: What about the “0.01 uM KAM” value (KSR1; relative to 0 uM KAM = 0) of the same compound?
A: Its value is -0.01741.

Q: And the “0.1 uM KAM” value (KSR1; relative to 0 uM KAM = 0)?
A: The value was -0.1182.

Q: And the “1 uM KAM” value (KSR1; relative to 0 uM KAM = 0)?
A: The value was -0.1931.

Q: What about the “10 uM KAM” value (KSR1; relative to 0 uM KAM = 0) of the same compound?
A: Its value is -0.2362.

Q: What about the “median Log10 fold change” value (MAP2K2; 0.001 uM KAM) of the same compound?
A: The value was -0.0579.

Q: And the “median Log10 fold change” value (MAP2K2; 0.01 uM KAM)?
A: The value was -0.04236.

Q: And the “median Log10 fold change” value (MAP2K2; 0.1 uM KAM)?
A: The value was -0.2079.

Q: And the “median Log10 fold change” value (MAP2K2; 1 uM KAM)?
A: The value was -0.4376.

Q: What about the “median Log10 fold change” value (MAP2K2; 10 uM KAM) of the same compound?
A: Its value is -0.4638.

Q: What about the IC50 (MAP2K2; [2]) of the same compound?
A: Its IC50 is 360 nM.

Q: And the IC50 (INSR; [1])?
A: Its IC50 is greater than 10000 nM.

Q: What about the “0.001 uM KAM” value (INSR; relative to 0 uM KAM = 0) of the same compound?
A: The value was -0.0389.

Q: What about the “0.01 uM KAM” value (INSR; relative to 0 uM KAM = 0) of the same compound?
A: The value was 0.002129.

Q: And the “0.1 uM KAM” value (INSR; relative to 0 uM KAM = 0)?
A: The value was -0.09696.

Q: And the “1 uM KAM” value (INSR; relative to 0 uM KAM = 0)?
A: Its value is -0.2508.

Q: And the “10 uM KAM” value (INSR; relative to 0 uM KAM = 0)?
A: Its value is -0.2556.

Q: And the “median Log10 fold change” value (HIPK1; 0.001 uM KAM)?
A: The value was 0.007007.

Q: What about the “median Log10 fold change” value (HIPK1; 0.01 uM KAM) of the same compound?
A: Its value is -0.007344.

Q: What about the “median Log10 fold change” value (HIPK1; 0.1 uM KAM) of the same compound?
A: Its value is -0.151.

Q: What about the “median Log10 fold change” value (HIPK1; 1 uM KAM) of the same compound?
A: The value was -0.3582.

Q: What about the “median Log10 fold change” value (HIPK1; 10 uM KAM) of the same compound?
A: The value was -0.4749.

Q: What about the IC50 (HIPK1; [2]) of the same compound?
A: Its IC50 is 770 nM.

Q: What about the “median Log10 fold change” value (MAPKAPK5; 0.001 uM KAM) of the same compound?
A: Its value is 0.03286.

Q: And the “median Log10 fold change” value (MAPKAPK5; 0.01 uM KAM)?
A: The value was -0.006541.

Q: What about the “median Log10 fold change” value (MAPKAPK5; 0.1 uM KAM) of the same compound?
A: The value was -0.1605.

Q: And the “median Log10 fold change” value (MAPKAPK5; 1 uM KAM)?
A: Its value is -0.3604.

Q: And the “median Log10 fold change” value (MAPKAPK5; 10 uM KAM)?
A: Its value is -0.4852.

Q: What about the IC50 (MAPKAPK5; [2]) of the same compound?
A: The IC50 was 729 nM.

Q: And the “median Log10 fold change” value (MAP3K3; 0.001 uM KAM)?
A: The value was -0.04647.

Q: What about the “median Log10 fold change” value (MAP3K3; 0.01 uM KAM) of the same compound?
A: Its value is 0.002946.

Q: What about the “median Log10 fold change” value (MAP3K3; 0.1 uM KAM) of the same compound?
A: The value was -0.1524.

Q: And the “median Log10 fold change” value (MAP3K3; 1 uM KAM)?
A: The value was -0.3206.

Q: And the “median Log10 fold change” value (MAP3K3; 10 uM KAM)?
A: Its value is -0.4381.

Q: And the IC50 (MAP3K3; [2])?
A: Its IC50 is 1000 nM.
